Data: ChEMBL document CHEMBL1201862, “PubChem BioAssay data set” (2004)
Activity calls are given as the source filed them.

How the values were obtained:
[1] = target: T1, Polyadenylate-binding protein 1 (Homo sapiens, UniProt P11940); test: MLLE domain peptide-binding blockers, IC50 – biochemical, fluorescence polarization, FITC-PAM2 peptide, dose response (AID 602259); format: functional; settings: read-out: IC50_Mean
[2] = target: T1, Polyadenylate-binding protein 1; test: MLLE binding blockers, Cy5 peptide tracer – biochemical, fluorescence polarization, Cy5-PAM2 peptide, secondary, miRNA deadenylation inhibitor project, dose response (AID 602260); format: functional; settings: read-out: IC50_Mean
[3] = DRD fibroblast viability loss – cell-based, non-viral oncogenic, luminescence, dose response (AID 1934); format: functional; settings: Homo sapiens
[4] = test system: BJ; test: cells; format: functional, cell-based; settings: Homo sapiens
[5] = test system: BJ; test: BJ-TERT-LT-ST fibroblast viability loss – cell-based, RAS-independent, luminescence, dose response (AID 1935); format: functional; settings: Homo sapiens;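 also: BJ fibroblasts immortalized with TERT plus LT and ST oncogenes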
[6] = test system: BJ; test: BJ-TERT fibroblast viability loss – cell-based, RAS-independent, luminescence, dose response (AID 1933); format: functional; settings: Homo sapiens
[7] = target: T2, High affinity choline transporter 1 (Homo sapiens, UniProt Q9GZV3); test: human choline transporter blockers, potency – cell-based, 5-point CRC, membrane potential dye, dose response (AID 504840); format: functional
T2 sequence (Q9GZV3 whole entry): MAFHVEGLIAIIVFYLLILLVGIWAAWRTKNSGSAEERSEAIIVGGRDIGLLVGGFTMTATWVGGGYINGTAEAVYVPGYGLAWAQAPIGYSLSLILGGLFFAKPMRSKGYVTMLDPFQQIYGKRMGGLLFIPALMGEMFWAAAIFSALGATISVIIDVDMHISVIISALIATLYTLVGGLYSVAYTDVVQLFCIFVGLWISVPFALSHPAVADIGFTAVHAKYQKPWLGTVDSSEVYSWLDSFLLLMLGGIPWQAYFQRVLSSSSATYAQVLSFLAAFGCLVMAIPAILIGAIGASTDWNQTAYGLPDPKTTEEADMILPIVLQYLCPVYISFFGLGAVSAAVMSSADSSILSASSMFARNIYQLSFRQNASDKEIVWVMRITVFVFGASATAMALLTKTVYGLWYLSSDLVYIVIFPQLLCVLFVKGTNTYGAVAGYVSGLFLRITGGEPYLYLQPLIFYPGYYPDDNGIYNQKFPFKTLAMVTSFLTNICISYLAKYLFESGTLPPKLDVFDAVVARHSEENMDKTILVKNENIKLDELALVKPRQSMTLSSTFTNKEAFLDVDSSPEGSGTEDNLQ

[8] = Luminescence Cell-Based Dose Response HTS to Identify Inhibitors of 5'UTR Stem-Loop Driven Prion Protein mRNA Translation in H4 Neuroglioblastoma Cells. [Related pubchem assays: 1827 (Project Summary), 1813 (Primary HTS)]; format: functional
[9] = target: T3, Microphthalmia-associated transcription factor (Homo sapiens, UniProt O75030); test: reducers of TRPM1 reporter luminescence, concentration series – cell-based, SK-MEL-5, cherry-picked, set 3, MITF inhibitor project, dose response (AID 493073); format: functional;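 also: SK-MEL-5 melanoma cells with luciferase driven by the MITF target TRPM1 promoter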
T3 sequence (O75030 whole entry): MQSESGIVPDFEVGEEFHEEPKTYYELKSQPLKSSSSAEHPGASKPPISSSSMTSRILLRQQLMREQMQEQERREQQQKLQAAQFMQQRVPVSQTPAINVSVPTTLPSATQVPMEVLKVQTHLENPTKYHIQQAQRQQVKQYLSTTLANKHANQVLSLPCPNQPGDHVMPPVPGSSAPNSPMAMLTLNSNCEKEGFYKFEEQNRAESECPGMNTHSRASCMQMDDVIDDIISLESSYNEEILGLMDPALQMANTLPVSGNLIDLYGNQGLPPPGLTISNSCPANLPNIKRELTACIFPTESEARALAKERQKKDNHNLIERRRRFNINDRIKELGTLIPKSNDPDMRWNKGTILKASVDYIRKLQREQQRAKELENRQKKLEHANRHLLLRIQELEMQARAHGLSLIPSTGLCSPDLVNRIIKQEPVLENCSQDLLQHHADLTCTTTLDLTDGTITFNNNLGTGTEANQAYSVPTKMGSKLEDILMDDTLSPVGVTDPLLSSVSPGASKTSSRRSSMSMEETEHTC

[10] = luciferase reporter signal suppression in cells – H4 neuroglioma cells, luminescence, dose response (AID 1990); format: functional, cell-based
[11] = alpha-synuclein stem-loop luciferase translation blockers – H4 neuroglioma cells, luminescence, confirmation (AID 1988); format: functional, cell-based
[12] = test system: H9c2; test: cells; format: functional, cell-based; settings: Rattus norvegicus, H9c2, Myocardium;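 also: confirmatory concentration-response retest of ultra-high-throughput screening hits for modulation of myocardial damage; cell death induced by hydrogen peroxide oxidative stress; compound pretreatment for 60 min then peroxide exposure for 2 h; potency is for protecting the cells against peroxide damage rather than for killing them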
[13] = target: FAD-linked sulfhydryl oxidase ALR (Homo sapiens, UniProt P55789); test: ALR-catalysed DTT oxidation blockers – biochemical, H2O2 detection, luminescence, cherry-pick, dose response (AID 493248)
[14] = target: T4, Rac GTPase-activating protein 1 (Homo sapiens, UniProt Q9H0H5); test: blockers of MgcRacGAP-driven Rac1 GTP hydrolysis – biochemical, ADP Hunter fluorescence, primary and confirmatory, confirmation (AID 624330); format: functional
T4 sequence (Q9H0H5 whole entry): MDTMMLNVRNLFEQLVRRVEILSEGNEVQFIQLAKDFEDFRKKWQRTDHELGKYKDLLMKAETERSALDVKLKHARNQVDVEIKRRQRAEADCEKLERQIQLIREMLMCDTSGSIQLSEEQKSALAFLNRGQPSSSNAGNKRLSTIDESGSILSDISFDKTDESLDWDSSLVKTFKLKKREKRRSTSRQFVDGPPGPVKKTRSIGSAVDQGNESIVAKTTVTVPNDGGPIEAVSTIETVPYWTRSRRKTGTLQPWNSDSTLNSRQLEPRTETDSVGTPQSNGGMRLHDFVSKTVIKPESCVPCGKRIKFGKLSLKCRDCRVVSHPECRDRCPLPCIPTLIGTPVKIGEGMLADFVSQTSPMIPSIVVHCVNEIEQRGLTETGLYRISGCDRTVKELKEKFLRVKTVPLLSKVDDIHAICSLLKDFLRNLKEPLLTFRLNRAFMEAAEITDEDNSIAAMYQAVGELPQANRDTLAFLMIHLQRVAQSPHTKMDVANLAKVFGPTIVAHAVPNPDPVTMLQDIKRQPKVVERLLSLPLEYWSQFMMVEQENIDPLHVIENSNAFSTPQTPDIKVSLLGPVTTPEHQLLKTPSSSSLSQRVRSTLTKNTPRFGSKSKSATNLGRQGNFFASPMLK

[15] = target: T5, Corticotropin-releasing factor receptor 2/Corticotropin-releasing factor-binding protein (Homo sapiens, UniProt P24387+Q13324); test: Dose Response confirmation of uHTS hits for small molecule antagonists of the CRF-binding protein and CRF-R2 receptor complex.; format: functional; settings: read-out: IC50_Mean
T5 sequence (Q13324 whole entry): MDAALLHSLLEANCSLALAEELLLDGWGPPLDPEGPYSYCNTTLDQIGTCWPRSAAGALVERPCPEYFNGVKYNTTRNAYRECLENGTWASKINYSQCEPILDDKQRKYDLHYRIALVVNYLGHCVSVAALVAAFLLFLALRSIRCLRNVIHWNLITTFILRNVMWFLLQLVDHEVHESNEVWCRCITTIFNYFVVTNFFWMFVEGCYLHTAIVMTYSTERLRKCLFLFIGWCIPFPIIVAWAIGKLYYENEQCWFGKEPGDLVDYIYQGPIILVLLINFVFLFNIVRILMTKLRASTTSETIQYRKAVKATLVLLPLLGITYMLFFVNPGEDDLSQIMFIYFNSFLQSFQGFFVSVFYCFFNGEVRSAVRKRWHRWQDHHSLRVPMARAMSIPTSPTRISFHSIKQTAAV
T5 sequence (P24387 whole entry): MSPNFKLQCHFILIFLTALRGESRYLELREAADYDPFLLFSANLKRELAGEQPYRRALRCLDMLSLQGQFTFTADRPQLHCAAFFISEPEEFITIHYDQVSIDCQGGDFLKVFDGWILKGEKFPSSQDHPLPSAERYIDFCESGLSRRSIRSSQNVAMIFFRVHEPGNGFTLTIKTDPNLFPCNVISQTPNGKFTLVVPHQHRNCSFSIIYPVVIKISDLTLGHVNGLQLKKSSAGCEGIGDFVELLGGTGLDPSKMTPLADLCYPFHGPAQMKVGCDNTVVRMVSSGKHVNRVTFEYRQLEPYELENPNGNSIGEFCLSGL

[16] = target: T5, Corticotropin-releasing factor receptor 2/Corticotropin-releasing factor-binding protein; test: activators of CRF receptor 2 with binding protein – uHTS hits, confirmation (AID 602473); format: functional; settings: read-out: EC50_Mean
[17] = microbe, parasite or virus in culture; format: functional; settings: Mycobacterium tuberculosis

Chain of FAD-linked sulfhydryl oxidase ALR (P55789 whole entry): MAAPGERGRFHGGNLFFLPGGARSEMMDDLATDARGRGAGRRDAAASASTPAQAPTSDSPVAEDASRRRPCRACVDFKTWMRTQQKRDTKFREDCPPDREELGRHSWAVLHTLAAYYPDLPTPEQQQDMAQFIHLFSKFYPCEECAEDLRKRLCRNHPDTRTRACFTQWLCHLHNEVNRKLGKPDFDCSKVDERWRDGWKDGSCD
T1 sequence (P11940 whole entry, the tested form may be a part): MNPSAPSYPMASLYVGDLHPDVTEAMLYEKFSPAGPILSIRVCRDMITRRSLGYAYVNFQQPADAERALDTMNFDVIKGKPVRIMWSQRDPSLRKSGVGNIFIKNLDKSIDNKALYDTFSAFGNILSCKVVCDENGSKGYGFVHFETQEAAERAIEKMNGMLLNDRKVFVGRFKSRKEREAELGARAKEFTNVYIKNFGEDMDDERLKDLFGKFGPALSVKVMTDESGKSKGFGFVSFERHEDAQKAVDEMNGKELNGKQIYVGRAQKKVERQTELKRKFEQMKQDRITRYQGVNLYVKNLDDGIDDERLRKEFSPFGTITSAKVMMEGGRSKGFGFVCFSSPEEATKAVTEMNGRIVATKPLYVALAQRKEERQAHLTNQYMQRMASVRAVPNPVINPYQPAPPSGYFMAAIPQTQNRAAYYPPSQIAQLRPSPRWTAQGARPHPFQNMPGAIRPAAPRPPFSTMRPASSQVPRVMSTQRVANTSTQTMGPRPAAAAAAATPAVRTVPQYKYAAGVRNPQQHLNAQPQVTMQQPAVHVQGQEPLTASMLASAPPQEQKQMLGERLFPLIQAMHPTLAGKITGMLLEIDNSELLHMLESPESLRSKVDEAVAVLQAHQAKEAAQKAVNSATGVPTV

Compound: Cc1cc(NS(=O)(=O)c2ccc(NC(=S)NC(=O)c3ccc(F)cc3)cc2)no1
- IC50 [1]: > 66 µM (inactive)
- IC50 [2]: > 66 µM (inactive)

Compound: Cc1cc(C)c2c(NC(=O)CCl)nn(C)c2n1
- EC50 [3]: 29.2 µM (active)
- EC50 [4]: > 150 µM (not active)
- EC50 [5]: > 150 µM (inconclusive)
- EC50 [6]: 28.7 µM (active)

Compound: CC1CCN(S(=O)(=O)c2nnc(NC(=O)c3cccc([N+](=O)[O-])c3)s2)CC1
- IC50 [7]: 11.5 µM (active)

Compound: O=C(Nc1nc2cc3c(cc2s1)OCO3)C1=COCCO1
- EC50 [8]: 6.64 µM (active)
- AC50 [9]: 3.77 µM (active)
- EC50 [10]: 2.39 µM (inconclusive)
- EC50 [11]: 1.22 µM (active)

Compound: Cc1cccc(NC(=O)c2oc3ccc(S(=O)(=O)N4CCOCC4)cc3c2C)c1C
- IC50 [12]: > 79 µM (inactive)

Compound: COc1ccc(OC)c(C2C(C#N)=C(N)Oc3cc(N)ccc32)c1 (centres undefined)
- AC50 [13]: 3.1 µM (active)

Compound: CCOC(=O)COc1ccc2c3c(c(=O)oc2c1)CCCC3
- IC50 [12]: 31.2 µM (inactive)

Compound: Cc1cc(N2CCCC2)ccc1NC(=O)CN1C(=O)NC2(CCCCC2)C1=O
- AC50 [13]: 0.644 µM (active)
- IC50 [14]: 268 µM (active)

Compound: CCOC(=O)CC1(CC(=O)OCC)NC(=O)c2c(C)sc(C(=O)OCC)c2N1
- IC50 [7]: 13.8 µM (active)

Compound: CCCn1nc2cc(C(=O)NCc3ccc(C)cc3)ccc2c1OCC
- IC50 [7]: 8.18 µM (active)

Compound: CC(C)c1ccc(NC2CCCN(C(=O)c3cc(C(C)C)nc(N)n3)C2)cc1 (centres undefined)
- AC50 [13]: 0.714 µM (active)

Compound: CC1(C(=O)N2CCC(CC3CC(c4ccc(Cl)cc4)=NO3)(C(=O)NCC3CCCCC3)CC2)CC1 (centres undefined)
- IC50 [7]: 6.92 µM (active)

Compound: O=C(CCl)Nc1nccs1
- IC50 [15]: > 47.1 µM (inactive)
- EC50 [16]: > 53 µM (inactive)
- CC50 [17]: 13.7 µM (active)

Compound: Cc1ccc(/C=C(\NC(=O)c2ccc(C)cc2)c2n[nH]c(S)n2)cc1
- CC50 [17]: > 40 µM (active)

Compound: O=C1C=C(NNC(=O)c2cccnc2)CC(c2ccco2)C1 (centres undefined)
- IC50 [1]: > 66 µM (inactive)
- IC50 [2]: > 66 µM (inactive)

Compound: CSCCCN=C(S)N1CCN(c2ccc(C(C)=O)cc2)CC1
- CC50 [17]: > 40 µM (active)

Compound: CC(Oc1ccccc1Cl)C(=O)Nc1ccc(S(=O)(=O)N2CCN(C)CC2)cc1 (centres undefined)
- IC50 [1]: > 66 µM (inactive)
- IC50 [2]: > 66 µM (inactive)
